# According to patent publication US20210145801A1, “THERAPY FOR PROTEIN MISFOLDING DISEASE” (WREN THERAPEUTICS LIMITED, priority 2018, published 2021):
# “Also recorded” adds a separate entry of the source.
# Assays:
# Aβ42 oligomers = molecular target: T1, Aβ42 oligomers (Homo sapiens, UniProt P05067); test: Ca2+ influx assay (lipid vesicle disruption); format: biochemical; details: 2 μM Aβ42; 5-fold excess added at 0 h; measured at 2 h (half-time)
# T1 construct: made in house; host or cells: E. coli BL21 Gold (DE3)
# Procedure: Single vesicles tethered to PLL-PEG coated borosilicate glass coverslides (VWR International, 22×22 mm, product number 63 1-0122) were placed on an oil immersion objective mounted on an inverted Olympus IX-71 microscope. Each coverslide was affixed at Frame-Seal incubation chambers and was incubated with 50 μL of HEPES buffer of pH 6.5. Just before the imaging, the HEPES buffer was replaced with 50 μL Ca^2+ containing buffer solution L-15. 16 (4×4) images of the coverslide were recorded under three different conditions (background, in the presence of Aβ42 and after addition of ionomycin (Cambridge Bioscience Ltd, Cambridge, UK), respectively). The distance between each field of view was set to 100 μm, and was automated (bean-shell script, Micromanager) to avoid any user bias. After each measurement the script allowed the stage (Prior H117, Rockland, Mass., USA) to move the field of view back to the start position such that identical fields of view could be acquired for the three different conditions. Images of the background were acquired in the presence of L15 buffer. For each field of view 50 images were taken with an exposure time of 50 ms. […] The recorded images were analysed using ImageJ to determine the fluorescence intensity of each spot under the three different conditions in the presence of an aggregation mixture incubated with and without Netoglitazone.
# Aβ42 = molecular target: T2, Aβ42 (Homo sapiens, UniProt P05067); test: Seeded Aβ42 aggregation kinetics (2% or 50% preformed fibril seeds); format: biochemical; details: 2 μM Aβ42; 50% seeds; up to 20-fold excess
# T2 construct: made in house; host or cells: E. coli BL21 Gold (DE3)
# Procedure: For the seeded experiments, preformed fibrils were prepared just prior to the experiment. Kinetic experiments were set up as described above for 5 μM Aβ42 samples in 20 mM sodium phosphate buffer, pH 8 with […] EDTA, 0.02% NaN3 and 20 μM ThT. The ThT fluorescence was monitored for 3 hours to verify the formation of fibrils. Samples were then collected from the wells into low-binding tubes. Under the considered conditions (i.e. 5 μM Aβ42), the monomer concentration is negligible at equilibrium. The final concentration of fibrils, in monomer equivalents, was considered equal to the initial concentration of monomer. Fibrils were then added to freshly prepared monomer in order to reach either 2% or 50% final concentration of seeds in the absence or the presence of Netoglitazone.
# Inhibitors can interfere with the aggregation process by inhibiting one or more of the individual microscopic steps. […]
# Aβ42 fibrils = molecular target: T3, Aβ42 fibrils (Homo sapiens, UniProt P05067); test: Dot blot assay with fibril-specific OC antibody; format: biochemical; details: 2 μM Aβ42; 5-fold excess of compound; eight time points
# T3 construct: made in house; host or cells: E. coli BL21 Gold (DE3)
# Procedure: Blotting was performed using Aβ42 fibril-specific antibody (OC, Millipore). During the time course of the aggregation of a 2 μM Aβ42 in the absence and in the presence of 5-fold excess of Netoglitazone, 4 μL Aβ42 aliquots were removed from the mixture at different time points for blotting with OC. Aβ42 aliquots were spotted onto a nitrocellulose membrane (0.2 μm, Whatman) and then the membranes were dried and then blocked with Blocking One (Nacalai tesque) before immuno-detection. OC was used according to the manufacturer's instructions. Alexa Fluor® 488-conjugated secondary antibodies (Life technologies) were subsequently added and fluorescence detection was performed using Typhoon Trio Imager (GE Healthcare).
# [1] = molecular target: T4, Aβ plaques in AD worms (GMC101) (Homo sapiens, UniProt P05067); test: NIAD-4 staining of plaques load in living AD worms; format: in vivo, C. elegans
# T4 construct: unc-54p::A-beta-1-42 expresses full-length human Aβ42 peptide in body wall muscle cells; expressed in transfected cells; host or cells: C. elegans strain GMC101 (dvIs100), body wall muscle cells
# Procedure: GMC101 dvIs100 [unc-54p::A-beta-1-42::unc-54 3′UTR+mtl-2p::GFP]. mtl-2p::GFP produces constitutive expression of GFP in intestinal cells. unc-54p::A-beta-1-42 expresses full-length human Aβ42 peptide in body wall muscle cells that aggregates in vivo. Shifting L4 or young adult animals from 20° to 24° C. causes paralysis (G. McColl et al., Utility of an improved model of amyloid-beta (Aβ1-42) toxicity in Caenorhabditis elegans for drug screening for Alzheimer's disease. Mol Neurodegener. 7, 57 (2012));
# Briefly, Netoglitazone stocks (5 mM in 100% DMSO) were used at an appropriate concentration to seed 9-cm NGM plates. Plates were then placed in a laminar flow hood at room temperature (22° C.) for up to 4 hours to dry. […]
# Plaques staining was carried out as previously described (J. Habchi et al. (2016); M. Perni et al., A natural product inhibits the initiation of α-synuclein aggregation & suppresses its toxicity. Proc. Natl. Acad. Sci. U.S.A. 114, E1009-E1017 (2017)). […] Images were captured with a Zeiss Axio Observer D1 fluorescence microscope (Carl Zeiss Microscopy GmbH) with a 20× objective and a 49004 ET-CY3/TRITC filter (Chroma Technology Corp). Fluorescence intensity was calculated using ImageJ software (National Institutes of Health) and then normalized as the corrected total cell fluorescence. […] Statistical significance was determined using t tests.
# T4 sequence (P05067 672-713 limits assumed): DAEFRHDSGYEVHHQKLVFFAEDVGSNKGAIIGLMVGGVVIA
# T2 sequence (P05067 671-713): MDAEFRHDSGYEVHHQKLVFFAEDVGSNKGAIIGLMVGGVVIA
# T1 sequence (P05067 671-713): as above
# T3 sequence (P05067 671-713): as above
structure (smiles),measurement,setting,value
O=C1NC(=O)C(Cc2ccc3cc(OCc4ccccc4F)ccc3c2)S1 (centres unmarked) [Netoglitazone],Protection against lipid vesicle disruption by Aβ42 oligomers (Ca2+ influx),Aβ42 oligomers,protected against the neurotoxic species-induced vesicle disruption; also recorded: decreased substantially the toxic effect
same,Effect on aggregation kinetics / elongation (k+) with 50% preformed seeds,Aβ42,did not affect the aggregation kinetics; also recorded: does not affect the elongation rates of Aβ42 aggregation
same,Delay of Aβ42 fibril formation in dot-blot assay,Aβ42 fibrils,identical within experimental error to that observed in the ThT-based assay
same,Plaques load in AD worms (NIAD-4 fluorescence),"[1]; 0.5 μM administered at L4, day 6 of adulthood",significantly decrease the plaques load; also recorded: Decrease in the plaques load in AD worms
same,Plaques load in AD worms after late administration,"[1]; administered at D3 of adulthood, read at D6",significant decrease of the plaques load at D6; also recorded: decreases the plaques load at D6 of adulthood
